From patent US7816371B2, “Bicycloheteroaryl compounds as P2X7 modulators and uses thereof” (Renovis, Inc., priority 2006, dated 2010) come the findings set out here.

The test concerns the target T1, P2X7 receptor (Homo sapiens, UniProt Q99572).
T1 construct: host or cells: THP-1 cells differentiated with LPS and IFN-γ
T1 sequence (Q99572 1-595): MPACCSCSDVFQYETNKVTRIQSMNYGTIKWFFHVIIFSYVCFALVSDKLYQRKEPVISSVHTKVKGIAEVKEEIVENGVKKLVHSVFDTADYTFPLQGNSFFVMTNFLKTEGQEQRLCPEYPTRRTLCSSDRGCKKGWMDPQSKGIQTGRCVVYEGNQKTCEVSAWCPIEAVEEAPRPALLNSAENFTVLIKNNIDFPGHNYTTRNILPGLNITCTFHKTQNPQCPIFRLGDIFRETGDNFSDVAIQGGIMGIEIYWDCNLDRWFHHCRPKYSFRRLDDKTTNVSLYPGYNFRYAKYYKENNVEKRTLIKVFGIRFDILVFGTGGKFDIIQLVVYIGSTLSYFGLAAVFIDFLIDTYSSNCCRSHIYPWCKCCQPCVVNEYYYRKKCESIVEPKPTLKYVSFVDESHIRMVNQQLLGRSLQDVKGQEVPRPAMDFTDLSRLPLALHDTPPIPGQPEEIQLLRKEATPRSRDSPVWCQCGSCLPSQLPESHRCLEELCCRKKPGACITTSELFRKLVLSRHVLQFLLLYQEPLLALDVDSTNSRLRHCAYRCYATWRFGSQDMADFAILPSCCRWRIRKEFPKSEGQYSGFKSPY
Briefly: IL-1β release assay in differentiated THP-1 cells stimulated with BzATP (Example 9); % inhibition and IC50. The test is classed as cell-based. Conditions: THP-1 cells differentiated with LPS and IFN-γ, 30 min pretreatment, BzATP 250 uM, IL-1β by ELISA. The method, then: The cells are then pretreated for 30 minutes with the compound of interest at the appropriate concentration in RPMI media containing 100 IU/mL penicillin, 100 ug/mL streptomycin. […] 30 uL of cell supernatant is then collected and IL-1β levels determined via ELISA (R&D systems Cat. # HSLB50) according to manufacturer's recommendations using the Tecan Safire plate reader. Background adjusted IL-1β levels of drug treated and non-treated cells are used to calculate the percent inhibition.
The compounds set forth in Table 1 were tested for activity in a cellular model as described herein.
For `CNC(=O)[C@@H](C(C)C)n1ccc2c(NC(=O)[C@H](C)c3ccc(Cl)cc3)cccc2c1=O` [Compound 277], the concentration for half-maximal inhibition (IC50) amounted to 0.082 µM.

Turning to `CNC(=O)[C@@H](C(C)C)n1ccc2c(NC(=O)[C@@H](C)c3ccc(Cl)cc3)cccc2c1=O` [Compound 276, (R)-2-{5-[(S)-2-(4-Chloro-phenyl)-propionylamino]-1-oxo-1H-isoquinolin-2-yl}-3,N-dimethyl-butyramide], the concentration for half-maximal inhibition (IC50) was determined as 0.0533 µM.

As for `O=C(Cc1cccc(C(F)(F)F)c1F)Nc1c(NCCO)ccc2c(=O)n(CCO)ccc12` [Compound 385, 2-(2-Fluoro-3-trifluoromethyl-phenyl)-N-[2-(2-hydroxy-ethyl)-6-(2-hydroxy-ethylamino)-1-oxo-1,2-dihydro-isoquinolin-5-yl]-acetamide], the IC50 is more than 1 µM.

For `O=C(Cc1ccc(Cl)c(Cl)c1)Nc1cccc2c(=O)n(C(CO)CO)ccc12` [Compound 80], the IC50 worked out at 0.0275 µM.

With `CC(C)[C@H](C(=O)NC1CC1)n1ccc2c(NC(=O)[C@@H](C)c3ccc(Cl)cc3)cccc2c1=O` [Compound 281, (R)-2-{5-[(S)-2-(4-Chloro-phenyl)-propionylamino]-1-oxo-1H-isoquinolin-2-yl}-N-cyclopropyl-3-methyl-butyramide], the IC50 was found to be 0.00739 µM.

With `CC(C)C(C(=O)Nc1cccc2c(=O)n(CCO)ccc12)c1ccc(Cl)cc1` (stereo not drawn) [Compound 78], the half-maximal inhibitory concentration (IC50) was more than 1 µM.

On to `O=C(Nc1cccc2c(=O)n(CCO)ccc12)c1ccccc1` [Compound 1], for which the IC50 is more than 1 µM.

In the case of `C[C@H](CO)n1ccc2c(NC(=O)Cc3ccc(F)c(Cl)c3)cccc2c1=O` [Compound 329], the IC50 was 0.206 µM.

With `C[C@H](C(N)=O)n1ccc2c(NC(=O)Cc3ccc(Cl)cc3)cccc2c1=O` [Compound 256], the IC50 turned out to be 0.0344 µM.

As to `CC(C)[C@H](C(=O)O)n1ccc2c(NC(=O)[C@@H](C)c3ccc(Cl)cc3)cccc2c1=O` [Compound 323, (R)-2-{5-[(S)-2-(4-Chloro-phenyl)-propionylamino]-1-oxo-1H-isoquinolin-2-yl}-3-methyl-butyric acid], the IC50 amounted to 0.32 µM.

As for `C[C@@H](CO)n1ccc2c(NC(=O)Cc3ccc(F)c(C(F)(F)F)c3)cccc2c1=O` [Compound 338], the half-maximal inhibitory concentration (IC50) stood at 0.0481 µM.

On to `O=C(CCc1cc(C(F)(F)F)cc(C(F)(F)F)c1)Nc1cccc2c(=O)n(CCO)ccc12` [Compound 61], for which the concentration for half-maximal inhibition (IC50) is more than 1 µM.

As for `O=C(Cc1ccc(Cl)c(Cl)c1)Nc1cccc2c(=O)n(CCO)ccc12` [Compound 8], the concentration for half-maximal inhibition (IC50) came out at 0.0303 µM.

Regarding `CC(C)[C@H](CO)n1ccc2c(NC(=O)[C@H](C)c3ccc(Cl)cc3)cccc2c1=O` [Compound 273, (R)-2-(4-Chloro-phenyl)-N-[(R)-2-(1-hydroxymethyl-2-methyl-propyl)-1-oxo-1,2-dihydro-isoquinolin-5-yl]-propionamide], the IC50 was found to be 0.00354 µM.

For the compound `C[C@H](C(N)=O)n1ccc2c(NC(=O)Cc3ccccn3)cccc2c1=O` [Compound 309], the IC50 is more than 1 µM.

In the case of `CC(C)C[C@H](CO)n1ccc2c(NC(=O)[C@@H](C)c3ccc(Cl)cc3)cccc2c1=O` [Compound 271], the IC50 was 0.0606 µM.

With `C[C@H](C(N)=O)n1ccc2c(NC(=O)Cc3cc(F)c(F)cc3F)cccc2c1=O` [Compound 305], the IC50 came out at 0.0363 µM.

Take `O=C(Cc1cc(C(F)(F)F)ccc1C(F)(F)F)Nc1cccc2c(=O)n(CCO)ccc12` [Compound 70]: the IC50 worked out at 0.406 µM.

For the compound `C[C@H](CO)n1ccc2c(NC(=O)Cc3ccc(Cl)cc3F)cccc2c1=O` [Compound 327], the IC50 is 0.0394 µM.

Take `O=C(Cc1ccc(C(F)(F)F)c(F)c1)Nc1cccc2c(=O)n(CCO)ccc12` [Compound 357]: the half-inhibitory concentration (IC50) was 0.0146 µM.

In the case of `C[C@H](C(N)=O)n1ccc2c(NC(=O)Cc3cc(F)c(F)c(F)c3)cccc2c1=O` [Compound 381], the IC50 was 0.0324 µM.

Consider `C[C@H](C(=O)Nc1cccc2c(=O)n([C@H](C)C(=O)O)ccc12)c1ccc(Cl)cc1` [Compound 322, (R)-2-{5-[(S)-2-(4-Chloro-phenyl)-propionylamino]-1-oxo-1H-isoquinolin-2-yl}-propionic acid], for which the IC50 was found to be 0.572 µM.

`O=C(CCc1cc(C(F)(F)F)ccc1C(F)(F)F)Nc1cccc2c(=O)n(CCO)ccc12` [Compound 62]: the IC50 was 0.0222 µM.

As for `C[C@H](C(N)=O)n1ccc2c(NC(=O)Cc3ccc(C(F)(F)F)cc3)cccc2c1=O` [Compound 298], the half-maximal inhibitory concentration (IC50) came out at 0.00791 µM.

With `C[C@H](CO)n1ccc2c(NC(=O)Cc3ccc(Cl)c(F)c3)cccc2c1=O` [Compound 330, 2-(4-Chloro-3-fluorophenyl)-N-[2-((R)-2-hydroxy-1-methyl-ethyl)-1-oxo-1,2-dihydro-isoquinolin-5-yl]-acetamide], the half-inhibitory concentration (IC50) amounted to 0.0133 µM.

For the compound `C[C@H](C(N)=O)n1ccc2c(NC(=O)Cc3c(F)cccc3F)cccc2c1=O` [Compound 292], the concentration for half-maximal inhibition (IC50) is more than 1 µM.

Consider `C[C@@H](C(N)=O)n1ccc2c(NC(=O)Cc3ccc(Cl)cc3F)cccc2c1=O` [Compound 350], for which the IC50 worked out at 0.0136 µM.

Regarding `C[C@H](CO)n1ccc2c(NC(=O)Cc3ccc(C(F)(F)F)cc3C(F)(F)F)cccc2c1=O` [Compound 361], the IC50 is 0.0143 µM.

As to `COc1ccc(C(=O)Nc2cccc3c(=O)n(C(CO)CO)ccc23)c(OC)c1` [Compound 5], the concentration for half-maximal inhibition (IC50) is more than 1 µM.

In the case of `C[C@@H](C(N)=O)n1ccc2c(NC(=O)Cc3ccc(Cl)cc3C(F)(F)F)cccc2c1=O` [Compound 237, (S)-2-{5-[2-(4-Chloro-2-trifluoromethyl-phenyl)-acetylamino]-1-oxo-1H-isoquinolin-2-yl}-propionamide], the IC50 worked out at 0.00627 µM.

Take `COc1ccc(CC(=O)Nc2cccc3c(=O)n(CCO)ccc23)cc1Br` [Compound 66]: the IC50 came to 0.11 µM.

In the case of `C[C@@H](C(N)=O)n1ccc2c(NC(=O)Cc3ccc(Cl)c(F)c3)cccc2c1=O` [Compound 352], the half-inhibitory concentration (IC50) amounted to 0.0327 µM.

As for `C[C@@H](CO)n1ccc2c(NC(=O)Cc3cccc(C(F)(F)F)c3F)cccc2c1=O` [Compound 325], the concentration for half-maximal inhibition (IC50) amounted to 0.0846 µM.

With `C[C@H](C(N)=O)n1ccc2c(NC(=O)Cc3ccc(F)cc3F)cccc2c1=O` [Compound 293], the half-maximal inhibitory concentration (IC50) worked out at 0.0444 µM.

In the case of `COc1ccc(CC(=O)Nc2cccc3c(=O)n(CCO)ccc23)cc1` [Compound 2], the IC50 was more than 1 µM.

With `CC(C(=O)Nc1cccc2c(=O)n([C@H](C)C(N)=O)ccc12)c1cccc(C(F)(F)F)c1F` (stereo partly drawn) [Compound 337], the half-maximal inhibitory concentration (IC50) was found to be 0.00915 µM.

As for `C[C@H](C(=O)Nc1cccc2c(=O)n([C@H](C)C(N)=O)ccc12)c1ccc(Cl)c(Cl)c1` [Compound 268], the IC50 was 0.00392 µM.

For the compound `C[C@H](C(N)=O)n1ccc2c(NC(=O)Cc3ccc(Cl)nc3)cccc2c1=O` [Compound 312], the IC50 was more than 1 µM.

In the case of `C[C@H](C(=O)Nc1cccc2c(=O)n(C(C(N)=O)c3ccc(Cl)cc3)ccc12)c1ccc(Cl)cc1` (stereo partly drawn) [Compound 315, (S)—N-{2-[Carbamoyl-(4-chloro-phenyl)-methyl]-1-oxo-1,2-dihydro-isoquinolin-5-yl}-2-(4-chloro-phenyl)-propionamide], the half-inhibitory concentration (IC50) was found to be 0.221 µM.

On to `CNC(=O)[C@@H](CO)n1ccc2c(NC(=O)C(C)c3ccc(Cl)c(Cl)c3)cccc2c1=O` (stereo partly drawn) [Compound 270, (R)-2-{5-[2-(3,4-Dichloro-phenyl)-propionylamino]-1-oxo-1H-isoquinolin-2-yl}-3-hydroxy-N-methyl-propionamide], for which the concentration for half-maximal inhibition (IC50) was determined as 0.0374 µM.

Consider `CC(C)(CO)n1ccc2c(NC(=O)Cc3ccc(F)c(Cl)c3)cccc2c1=O` [Compound 372], for which the IC50 turned out to be 0.421 µM.

As for `O=C(Cc1cc(C(F)(F)F)cc(C(F)(F)F)c1)Nc1cccc2c(=O)n(CCO)ccc12` [Compound 64], the IC50 came to 0.113 µM.

As for `O=C(Cc1ccc(C(F)(F)F)cc1)Nc1cccc2c(=O)n(CCO)ccc12` [Compound 7], the half-maximal inhibitory concentration (IC50) was 0.289 µM.

On to `O=C(Cc1ccc(Cl)c(Cl)c1)Nc1c(Cl)ccc2c(=O)n(CCO)ccc12` [Compound 248], for which the 50% inhibitory concentration (IC50) was more than 1 µM.

With `CC(C)C[C@H](CO)n1ccc2c(NC(=O)Cc3ccc(Cl)c(Cl)c3)cccc2c1=O` [Compound 275], the IC50 is 0.0198 µM.

Regarding `C[C@@H](C(N)=O)n1ccc2c(NC(=O)Cc3ccc(Cl)nc3)cccc2c1=O` [Compound 310], the half-maximal inhibitory concentration (IC50) is more than 1 µM.

Take `O=C(Cc1ccc2c(c1)OCCO2)Nc1cccc2c(=O)n(CCO)ccc12` [Compound 63]: the IC50 is more than 1 µM.

For the compound `Cc1ccc2c(=O)n([C@H](C)CO)ccc2c1NC(=O)Cc1ccc(F)c(C(F)(F)F)c1` [Compound 394], the IC50 is 0.00074 µM.

As to `C[C@@H](CO)n1ccc2c(NC(=O)Cc3ccc(Cl)cc3F)cccc2c1=O` [Compound 328], the 50% inhibitory concentration (IC50) came to 0.202 µM.

On to `O=C(Cc1ccc(Cl)cc1)Nc1cccc2c(=O)n(CCO)ccc12` [Compound 4], for which the IC50 turned out to be 0.317 µM.

For `C[C@H](C(N)=O)n1ccc2c(NC(=O)Cc3ccc(Cl)c(Cl)c3)cccc2c1=O` [Compound 239], the IC50 stood at 0.00405 µM.

For orientation: IC50 means the concentration that inhibits the measured activity by half.
